Converted amounts (≈) assume the structure as drawn. Read-outs that look alike come from different tables or passages of the source.
What was measured:
[1] = molecular target: T1, full-length beta-Catenin (Uniprot ID P35222) (Homo sapiens, UniProt P35222); experiment: Fluorescence polarization IC50 (beta-catenin / 5FAM-TCF4 10-53 competition); type: binding
T1 construct: 10 nM full-length beta-Catenin (Uniprot ID P35222)
T1 sequence (P35222 1-781): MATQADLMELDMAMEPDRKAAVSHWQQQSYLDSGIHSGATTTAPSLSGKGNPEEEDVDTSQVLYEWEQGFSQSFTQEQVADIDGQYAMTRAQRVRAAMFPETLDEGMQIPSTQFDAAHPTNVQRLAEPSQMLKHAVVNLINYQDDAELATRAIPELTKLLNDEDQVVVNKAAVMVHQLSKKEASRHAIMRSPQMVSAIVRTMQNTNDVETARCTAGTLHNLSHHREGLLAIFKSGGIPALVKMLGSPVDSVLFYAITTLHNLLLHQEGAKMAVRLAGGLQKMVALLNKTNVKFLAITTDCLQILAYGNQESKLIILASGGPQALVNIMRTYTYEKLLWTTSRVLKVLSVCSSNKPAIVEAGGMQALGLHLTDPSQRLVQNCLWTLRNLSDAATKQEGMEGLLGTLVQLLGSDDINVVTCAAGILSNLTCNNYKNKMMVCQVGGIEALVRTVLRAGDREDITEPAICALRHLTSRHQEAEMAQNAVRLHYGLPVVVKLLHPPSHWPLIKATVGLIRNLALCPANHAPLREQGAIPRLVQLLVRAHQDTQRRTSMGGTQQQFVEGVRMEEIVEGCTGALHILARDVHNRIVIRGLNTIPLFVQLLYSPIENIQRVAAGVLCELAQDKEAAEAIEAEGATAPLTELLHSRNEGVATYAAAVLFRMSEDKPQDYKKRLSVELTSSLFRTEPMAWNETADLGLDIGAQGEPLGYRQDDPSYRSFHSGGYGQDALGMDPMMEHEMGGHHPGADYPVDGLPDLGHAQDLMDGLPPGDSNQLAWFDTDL

CHI Log D procedure = type: physicochemical; settings: for chromatographic logD: pH 7.4, CHI Log D; for CHI Log D: pH 7.4
Solubility in PBS = type: physicochemical
Summary of the method: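 HPLC quantitation of peptide remaining in the PBS supernatant after ultracentrifugation, referenced to a 50 μM solution in DMSO.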

[2] = fluorescence polarization, read-out: beta-Catenin FP IC50

IC50 [1, 2] | chromatographic logD (CHI Log D procedure) | Solubility (Solubility in PBS; Solubility (uM)) | Solubility (Solubility in PBS) | IC50 ([1]; read-out: FP EC50) | CHI Log D (CHI Log D procedure) | Structure (SMILES)
27.5 nM | – | – | 35 µM (≈ 66.3 µg/mL) | 27.5 nM | 2.457 | CC[C@H](C)[C@@H]1NC(=O)[C@H](CC(=O)O)NC(=O)[C@]2(CC=CCCCC3(CCCC=CCCCCCC[C@@](C)(C(=O)N[C@@H](Cc4ccccc4OC)C(=O)N[C@@H](Cc4csc5ccccc45)C(=O)N[C@@H](Cc4c[nH]cn4)C(N)=O)NC(=O)[C@H](CC(N)=O)NC(=O)[C@H](Cc4ccccc4)NC(=O)[C@H](C)NC(=O)[C@H](C)NC(=O)[C@H](CC(=O)O)NC(=O)[C@H](CC(=O)O)NC3=O)NC1=O)CCCN2C(C)=O (stereo partly drawn) [I-554, Ac-PL3-Asp-Ile-B5-Asp-Asp-Ala-Ala-Phe-Asn-S8-2OMeF-BztA-His-NH2]
41 nM | – | – | 41 µM (≈ 76.7 µg/mL) | 41 nM | 2.374 | CC[C@H](C)[C@@H]1NC(=O)[C@H](CC(=O)O)NC(=O)[C@]2(CC=CCCCC3(CCCC=CCCCCCC[C@@](C)(C(=O)N[C@@H](Cc4ccsc4)C(=O)N[C@@H](Cc4csc5ccccc45)C(=O)N[C@@H](Cc4c[nH]cn4)C(N)=O)NC(=O)[C@H](CC(N)=O)NC(=O)[C@H](Cc4ccccc4)NC(=O)[C@H](C)NC(=O)[C@H](C)NC(=O)[C@H](CC(=O)O)NC(=O)[C@H](CC(=O)O)NC3=O)NC1=O)CCCN2C(C)=O (stereo partly drawn) [I-555, Ac-PL3-Asp-Ile-B5-Asp-Asp-Ala-Ala-Phe-Asn-S8-3Thi-BztA-His-NH2]
20 nM | – | – | 39 µM (≈ 72.9 µg/mL) | 20 nM | 2.435 | CC[C@H](C)[C@@H]1NC(=O)[C@H](CC(=O)O)NC(=O)[C@]2(CC=CCCCC3(CCCC=CCCCCCC[C@@](C)(C(=O)N[C@@H](Cc4ccsc4)C(=O)N[C@@H](Cc4csc5ccccc45)C(=O)N[C@@H](Cc4c[nH]cn4)C(N)=O)NC(=O)[C@H](CC(N)=O)NC(=O)[C@H](Cc4ccccc4)NC(=O)[C@H](C)NC(=O)[C@H](C)NC(=O)[C@H](CC(=O)O)NC(=O)[C@H](CC(=O)O)NC3=O)NC1=O)CCCN2C(C)=O (stereo partly drawn) [I-556, Ac-PL3-Asp-Ile-B5-Asp-Asp-Ala-Ala-Phe-Asn-S8-3Thi-BztA-His-NH2]
34 nM | – | – | 14 µM (≈ 26.3 µg/mL) | 34 nM | 2.437 | CC(=O)N1CCC[C@]12CC=CCCCC1(CCCC=CCCCCCC[C@@](C)(C(=O)N[C@@H](Cc3ccccc3)C(=O)N[C@@H](Cc3csc4ccccc34)C(=O)N[C@@H](Cc3c[nH]cn3)C(N)=O)NC(=O)[C@H](CCC(N)=O)NC(=O)[C@H](Cc3ccccc3)NC(=O)[C@H](C)NC(=O)[C@H](C)NC(=O)[C@H](CC(=O)O)NC(=O)[C@H](CC(=O)O)NC1=O)NC(=O)[C@H](CC(C)C)NC(=O)[C@H](CC(=O)O)NC2=O (stereo partly drawn) [I-561, Ac-PL3-Asp-Leu-B5-Asp-Asp-Ala-Ala-Phe-Gln-S8-Phe-BztA-His-NH2]
42 nM | – | – | 49 µM (≈ 90.9 µg/mL) | 42 nM | 2.169 | CC[C@@H]1NC(=O)[C@H](CC(=O)O)NC(=O)[C@]2(CC=CCCCC3(CCCC=CCCCCCC[C@@](C)(C(=O)N[C@@H](Cc4ccccc4)C(=O)N[C@@H](Cc4csc5ccccc45)C(=O)N[C@@H](CCC(N)=O)C(N)=O)NC(=O)[C@H](CCC(N)=O)NC(=O)[C@H](Cc4ccccc4)NC(=O)[C@H](C)NC(=O)[C@H](C)NC(=O)[C@H](CCC(=O)O)NC(=O)[C@H](CC(=O)O)NC3=O)NC1=O)CCCN2C(C)=O (stereo partly drawn) [I-569, Ac-PL3-Asp-Abu-B5-Asp-Glu-Ala-Ala-Phe-Gln-S8-Phe-BztA-Gln-NH2]

The remaining lines, values behind:

Structure (SMILES) | IC50 [1, 2] | chromatographic logD (CHI Log D procedure) | Solubility (Solubility in PBS; Solubility (uM)) | Solubility (Solubility in PBS) | IC50 ([1]; read-out: FP EC50) | CHI Log D (CHI Log D procedure)
CC(=O)N1CCC[C@]12CC=CCCCC1(CCCC=CCCCCCC[C@@](C)(C(=O)N[C@@H](Cc3ccccc3)C(=O)N[C@@H](Cc3csc4ccccc34)C(=O)N[C@@H](CCC(N)=O)C(N)=O)NC(=O)[C@H](C(C)C)NC(=O)[C@H](Cc3ccccc3)NC(=O)[C@H](C)NC(=O)[C@H](C)NC(=O)[C@H](CC(=O)O)NC(=O)[C@H](CC(=O)NC(C)C)NC1=O)NC(=O)[C@H](C)NC(=O)[C@H](CC(=O)O)NC2=O (stereo partly drawn) [I-535, Ac-PL3-Asp-Ala-B5-[NHiPr]AsnR-Asp-Ala-Ala-Phe-Val-S8-Phe-BztA-Gln-NH2] | 5000 nM | 2.86 | 47 µM (≈ 86.4 µg/mL) | – | – | –
CCNC(=O)C[C@@H]1NC(=O)C2(CCCC=CCCCCCC[C@@](C)(C(=O)N[C@@H](Cc3ccccc3)C(=O)N[C@@H](Cc3csc4ccccc34)C(=O)N[C@@H](CCC(N)=O)C(N)=O)NC(=O)[C@H](C(C)C)NC(=O)[C@H](Cc3ccccc3)NC(=O)[C@H](C)NC(=O)[C@H](C)NC(=O)[C@H](CC(=O)O)NC1=O)CCCC=CC[C@]1(CCCN1C(C)=O)C(=O)N[C@@H](CC(=O)O)C(=O)N[C@@H](C)C(=O)N2 (stereo partly drawn) [I-536, Ac-PL3-Asp-Ala-B5-[NHEt]AsnR-Asp-Ala-Ala-Phe-Val-S8-Phe-BztA-Gln-NH2] | 4470 nM | 2.75 | 23 µM (≈ 42 µg/mL) | – | – | –
CCCNC(=O)C[C@@H]1NC(=O)C2(CCCC=CCCCCCC[C@@](C)(C(=O)N[C@@H](Cc3ccccc3)C(=O)N[C@@H](Cc3csc4ccccc34)C(=O)N[C@@H](CCC(N)=O)C(N)=O)NC(=O)[C@H](C(C)C)NC(=O)[C@H](Cc3ccccc3)NC(=O)[C@H](C)NC(=O)[C@H](C)NC(=O)[C@H](CC(=O)O)NC1=O)CCCC=CC[C@]1(CCCN1C(C)=O)C(=O)N[C@@H](CC(=O)O)C(=O)N[C@@H](C)C(=O)N2 (stereo partly drawn) [I-537, Ac-PL3-Asp-Ala-B5-[NHnPr]AsnR-Asp-Ala-Ala-Phe-Val-S8-Phe-BztA-Gln-NH2] | 5000 nM | 2.87 | 11 µM (≈ 20.2 µg/mL) | – | – | –
CC(=O)N1CCC[C@]12CC=CCCCC1(CCCC=CCCCCCC[C@@](C)(C(=O)N[C@@H](Cc3ccccc3)C(=O)N[C@@H](Cc3csc4ccccc34)C(=O)N[C@@H](CCC(N)=O)C(N)=O)NC(=O)[C@H](C(C)C)NC(=O)[C@H](Cc3ccccc3)NC(=O)[C@H](C)NC(=O)[C@H](C)NC(=O)[C@H](CC(=O)O)NC(=O)[C@H](CC(=O)NC3CC3)NC1=O)NC(=O)[C@H](C)NC(=O)[C@H](CC(=O)O)NC2=O (stereo partly drawn) [I-538, Ac-PL3-Asp-Ala-B5-[NHCyPr]AsnR-Asp-Ala-Ala-Phe-Val-S8-Phe-BztA-Gln-NH2] | 5000 nM | 2.75 | 33 µM (≈ 60.6 µg/mL) | – | – | –
CC(=O)N1CCC[C@]12CC=CCCCC1(CCCC=CCCCCCC[C@@](C)(C(=O)N[C@@H](Cc3ccccc3)C(=O)N[C@@H](Cc3csc4ccccc34)C(=O)N[C@@H](CCC(N)=O)C(N)=O)NC(=O)[C@H](C(C)C)NC(=O)[C@H](Cc3ccccc3)NC(=O)[C@H](C)NC(=O)[C@H](C)NC(=O)[C@H](CC(=O)O)NC(=O)[C@H](CC(=O)NC3CCC3)NC1=O)NC(=O)[C@H](C)NC(=O)[C@H](CC(=O)O)NC2=O (stereo partly drawn) [I-539, Ac-PL3-Asp-Ala-B5-[NHCyBu]AsnR-Asp-Ala-Ala-Phe-Val-S8-Phe-BztA-Gln-NH2] | 5000 nM | 2.94 | – | 10 µM (≈ 18.5 µg/mL) | – | –
CO[C@H](C)[C@@H]1NC(=O)[C@H](CC(=O)O)NC(=O)[C@]2(CC=CCCCC3(CCCC=CCCCCCC[C@@](C)(C(=O)N[C@@H](Cc4ccccc4)C(=O)N[C@@H](Cc4csc5ccccc45)C(=O)N[C@@H](CCC(N)=O)C(N)=O)NC(=O)[C@H](CCC(N)=O)NC(=O)[C@H](Cc4ccccc4)NC(=O)[C@H](C)NC(=O)[C@H](C)NC(=O)[C@H](CCC(=O)O)NC(=O)[C@H](CC(=O)O)NC3=O)NC1=O)CCCN2C(C)=O (stereo partly drawn) [I-541, Ac-PL3-Asp-TOMe-B5-Asp-Glu-Ala-Ala-Phe-Gln-S8-Phe-BztA-Gln-NH2] | 180 nM | – | – | 50 µM (≈ 94.3 µg/mL) | 180 nM | 2.087
CO[C@H](C)[C@@H]1NC(=O)[C@H](CC(=O)O)NC(=O)[C@]2(CC=CCCCC3(CCCC=CCCCCCC[C@@](C)(C(=O)N[C@@H](Cc4ccccc4)C(=O)N[C@@H](Cc4csc5ccccc45)C(=O)N[C@@H](CCC(N)=O)C(N)=O)NC(=O)[C@H](CCC(N)=O)NC(=O)[C@H](Cc4ccccc4)NC(=O)[C@H](C)NC(=O)[C@H](C)NC(=O)[C@H](CCC(=O)O)NC(=O)[C@H](CC(=O)O)NC3=O)NC1=O)CCCN2C(C)=O (stereo partly drawn) [I-542, Ac-PL3-Asp-TOMe-B5-Asp-Glu-Ala-Ala-Phe-Gln-S8-Phe-BztA-Gln-NH2] | 109 nM | – | – | 39 µM (≈ 73.5 µg/mL) | 109 nM | 2.135
CC[C@H](C)[C@@H]1NC(=O)[C@H](CC(=O)O)NC(=O)[C@]2(CC=CCCCC3(CCCC=CCCCCCC[C@@](C)(C(=O)N[C@@H](Cc4ccsc4)C(=O)N[C@@H](Cc4csc5ccccc45)C(=O)N[C@@H](CCC(N)=O)C(N)=O)NC(=O)[C@H](CC(N)=O)NC(=O)[C@H](Cc4ccccc4)NC(=O)[C@H](C)NC(=O)[C@H](C)NC(=O)[C@H](CC(=O)O)NC(=O)[C@H](CC(=O)O)NC3=O)NC1=O)CCCN2C(C)=O (stereo partly drawn) [I-551, Ac-PL3-Asp-Ile-B5-Asp-Asp-Ala-Ala-Phe-Asn-S8-3Thi-BztA-Gln-NH2] | 45 nM | – | – | 50 µM (≈ 93.1 µg/mL) | 45 nM | 2.278
